{"source": "patent US9532569B2", "about": "(INSTITUT NATIONAL DE LA RECHERCHE AGRONOMIQUE, priority 2012, dated 2017)", "key": {"[1]": {"tested_on": "pea rms4 mutant", "type": "in vivo, Pisum sativum L.", "protocol": "The protocol used is in accordance with that described in example 4 above. Compound concentrations of 100 nM and 3 μM were tested. A negative control consisting of the solvent alone (<<CTL 0>>) was also tested.\nThe number of dead buds following the treatment with 3 μM of compound was also determined after 8 days of treatment (on groups of 48 plants)."}, "[2]": {"tested_on": "pea mutant rms1", "assay": "Inhibition of branching in the pea, application directly on the axillary bud", "type": "in vivo, Pisum sativum L.", "conditions": "for activity (length of bud/branch at node 3, 8 days after treatment at node 3): mean of 24 plants", "protocol": "Generally, in the pea, the first two scales are considered to be the first two nodes, the cotyledonary node being node 0.\nThe rms1 mutant is an “SMS” signal biosynthesis mutant, repressing branching of the plant.\nTests for activity on the inhibition of branching were carried out in the following way.\nThe strigolactone-deficient rms1 (ccd8) pea mutants described in Beveridge et al., 1997, were used for the test (M3T884 line derived from the Térèse variety).\nThe activity of the compounds (IIa), (II′d) and (II′e) in accordance with the invention and of the comparative compound GR24 was evaluated at respective doses of 10 nM, 100 nM and 1 μM, by treatment at node 3. […]\n24 plants were sown per treatment. 8 days after sowing, the treatment was carried out on the axillary bud at node 3, by application of 10 μl of each solution to be tested, directly on the bud, by means of a micropipette. The lateral outgrowths at nodes 1 and 2 were removed in order to encourage the growth of the axillary buds at the higher nodes. […]\nThe activity of the compounds (IIa), (IIb), (IIc), (II′d), (II′e) and (II′f) in accordance with the invention was evaluated at respective doses of 100 nM and 1 μM, by treatment at node 3.\nFor this, solutions containing each compound to be tested, in 1% acetone, 4% propylene glycol 1450 and 50% ethanol, were used.\nThe activity of the compounds (IIa), (IIIa), (IIIb) and (IIIc) in accordance with the invention, and also of GR24 as comparative compound, was evaluated at respective doses of 100 nM and 1 μM, by treatment at node 3, according to the protocol described above with reference to experiment 2.\nA sample consisting only of the solvent, and without active compound, was also tested as negative control, termed “CTL 0”.\nIn this experiment, the activity of the compound (IIIa) in accordance with the invention, and also of GR24 as comparative compound, was evaluated at respective doses of 1 nM, 10 nM, 100 nM and 1 μM, by treatment at node 3, according to the protocol described above with reference to experiment 2, for doses of 10 nM, 100 nM and 1 μM of compounds.\nA sample consisting only of the solvent, and without active compound (“CTL 0”) was also tested as a negative control. A nontreated (“NT”) control was also carried out.\n(§1) A dose-response test for evaluating the activity of the compounds by deposition at node 3 was carried out according to the protocol described above with reference to experiment 2, for the compound in accordance with the invention (IIa) and for the comparative compounds GR24, Comp. 3 and Comp. 4. Concentrations of 10 nM, 100 nM and 1 μM were tested.\nA sample consisting only of the solvent, and without active compound (“CTL 0”), was also tested as a negative control. A nontreated (“NT”) control was also carried out.\nas §1, with “Comp. 5” for “Comp. 3”, “Comp. 6.” for “Comp. 4.”, “10 nM and” for “10 nM,”, “nM” for “nM and 1 μM”, “tested. […]” for “tested.”\nThe sprouting of the axillary buds at node 4 was measured 8 days after the treatment by means of a digital sliding caliper.\nThe activity of the compound (IIIa) in accordance with the invention on bud growth at node 3 was evaluated at a dose of 1000 nM by treatment at node 3. The GR24 compound was tested at the same concentration as comparative compound. […]"}, "[3]": {"assay": "Stability in aqueous medium (UPLC, % nondegraded compound)", "type": "physicochemical", "protocol": "The stability in aqueous medium of the compound (IIa) according to the invention and that of GR24 as comparative compound was evaluated in the following way.\nEach compound was diluted in acetone (1 ml), then 50 μl of each solution were diluted with methanol (175 μl) and water (750 μl) so as to obtain a compound concentration of 50 μg/ml.\nThe aqueous solution thus obtained was incubated at 21° C. in HPLC vials.\nIndanol (25 μl of a solution at 1 mg/ml in acetone) was added to each solution in order to serve as an internal standard.\nThe degradation of each compound over time was monitored by analysis of samples taken from the solution at various time intervals, by Ultra Performance Liquid Chromatograpy (UPLC) by means of an Acquity UPLC HSS C18 column (1.8 μm, 2.1×50 mm), eluted first of all with a solution of acetonitrile at 5% in water containing 0.1% of formic acid, for 0.5 min, then with a gradient of 5% to 100% of acetonitrile in water containing 0.1% of formic acid, for 6.5 min, and with 100% of acetonitrile containing 0.1% of formic acid for 3 min. The column was maintained at a temperature of 40° C., with a flow of 0.6 ml/min.\nThe compounds eluted from the column were detected with a photodiode array detector.\nThe relative amount of nondegraded compound in the solution was determined by comparison with the internal standard.\nIn a second experiment, the stability in aqueous medium of the compounds (IIa) and (IIIb) according to the invention, and that of GR24 as comparative compound, was evaluated according to the protocol described above."}}}
{"smiles": "CC1=C(C)C(Sc2ccc(Cl)cc2)OC1=O", "note": "(stereo not drawn) [Compound (IIa), 5-((4-chlorophenyl)thio)-3,4-dimethylfuran-2(5H)-one]", "values": [{"measurement": "length of bud/branch at node 3 (toxicity)", "setting": "[1]; 100 nM and 3 μM, 8 days after treatment at node 3, FIG. 15", "value": "absence of effects of the compounds in accordance with the invention (IIa) and (IIIb) compared with a negative control, and between the two treatment doses"}, {"measurement": "number of dead buds after treatment", "setting": "[1]; 3 μM, 8 days of treatment, groups of 48 plants, FIG. 16", "value": "no significant difference is notable regarding the number of dead buds following the treatment"}, {"measurement": "inhibitory activity on bud growth (length of bud/branch at node 3, 8 days after treatment at node 3)", "setting": "[2]; Experiment 1, FIG. 3, 10 nM, 100 nM, 1 μM, at the highest concentrations", "value": "inhibitory activity on bud growth which is greater than that of the comparative compound GR24"}, {"measurement": "inhibitory activity on bud growth (length of bud/branch at node 3, 8 days after treatment at node 3)", "setting": "[2]; Experiment 2, FIG. 4, 100 nM and 1 μM", "value": "most active"}, {"measurement": "bud growth inhibition (length of bud/branch at node 3, 8 days after treatment at node 3)", "setting": "[2]; Experiment 3, FIG. 5, 100 nM and 1 μM", "value": "activity similar to that of the comparative compound GR24"}, {"measurement": "activity (length of bud/branch at node 3, 8 days after treatment at node 3)", "setting": "[2]; Experiment 5, FIG. 7, 10 nM, 100 nM and 1 μM", "value": "activity which is greater than the comparative compounds provided by the prior art, Comp. 3 and Comp. 4, this being at all the doses tested"}, {"measurement": "activity (length of bud/branch at node 3, 8 days after treatment at node 3)", "setting": "[2]; Experiment 6, FIG. 8, 10 nM and 100 nM", "value": "activity which is greater than the comparative compounds provided by the prior art, Comp. 5 and Comp. 6, this being at all the doses tested"}, {"measurement": "chemical stability in aqueous solution (% of nondegraded compound as a function of incubation time)", "setting": "[3]; 50 μg/ml of compound in methanol/water: 1/4, pH 6.7, 21° C., FIG. 1", "value": "very high chemical stability in aqueous solution, much higher than that of GR24"}, {"measurement": "chemical stability in aqueous solution (% of nondegraded compound as a function of incubation time)", "setting": "[3]; second experiment, longer incubation times, 50 μg/ml in methanol/water: 1/4, pH 6.7, 21° C., FIG. 2", "value": "very high chemical stability in aqueous solution, much higher than that of GR24"}]}
